Reference: BindingDB's records for doi:10.1021/jm800355c (Saarland University, 2008)

Biological target: T1, Cytochrome P450 11B1, mitochondrial (Homo sapiens, UniProt P15538)
T1 sequence (P15538 whole entry): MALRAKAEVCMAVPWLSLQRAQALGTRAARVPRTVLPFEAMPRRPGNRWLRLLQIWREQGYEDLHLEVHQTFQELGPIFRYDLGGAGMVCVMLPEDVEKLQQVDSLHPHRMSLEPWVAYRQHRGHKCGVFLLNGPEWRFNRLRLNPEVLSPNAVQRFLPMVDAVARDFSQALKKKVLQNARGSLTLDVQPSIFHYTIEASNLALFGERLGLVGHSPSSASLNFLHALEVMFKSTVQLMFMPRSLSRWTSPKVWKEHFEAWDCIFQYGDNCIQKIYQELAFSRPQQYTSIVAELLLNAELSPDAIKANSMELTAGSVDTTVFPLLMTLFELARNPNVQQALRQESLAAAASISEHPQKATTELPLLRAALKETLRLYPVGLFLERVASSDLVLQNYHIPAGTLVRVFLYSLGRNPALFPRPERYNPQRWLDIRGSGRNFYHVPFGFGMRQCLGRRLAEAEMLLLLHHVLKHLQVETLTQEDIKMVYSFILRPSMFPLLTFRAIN
Assay: CYP11B1 Inhibition Assay
Description: The enzyme activity was assayed by monitoring the conversion of deoxycorticosterone to corticosterone in the presence of inhibitor compounds. The product formation was monitored by HPTLC using a phosphoimager system.

Compound: C[C@]12CC[C@H](O)CC1=CC[C@@H]1[C@@H]2CC[C@]2(C)C(c3cccnc3)=CC[C@@H]12 [ABT]
- IC50: 1.61 µM
